Measurements published in patent US7091202B2, “4-arylspirocycloalkyl-2-aminopyrimidine carboxamide KCNQ potassium channel modulators” (Bristol-Myers Squibb Company, priority 2004, dated 2006).

Each molecule was assayed against T1, hQ23 (HEK-293 cell line stably transfected with one of the members of the KCNQ family) (Homo sapiens, UniProt O43525+O43526) (assay: Thallium flux assay for KCNQ channel blockers (FLIPR, BTC dye)). Details: hQ23 cells, thallium flux.
T1 construct: expressed in transfected cells; host or cells: HEK-293, stably transfected
Format: cell-based
Method in brief: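 HEK-293 cells stably expressing a KCNQ member, loaded with BTC-AM (2 μM) in chloride-free buffer, pH 7.3; compounds added at 1% DMSO, then Tl2SO4 stimulus on FLIPR (488/540 nm, 60 s). Minimal active concentration set at ≥4 SD above negative control; IC50 from 10-point 1:3 series, single-site logistic fit versus the positive-control blocker.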

T1 sequence (O43526 whole entry): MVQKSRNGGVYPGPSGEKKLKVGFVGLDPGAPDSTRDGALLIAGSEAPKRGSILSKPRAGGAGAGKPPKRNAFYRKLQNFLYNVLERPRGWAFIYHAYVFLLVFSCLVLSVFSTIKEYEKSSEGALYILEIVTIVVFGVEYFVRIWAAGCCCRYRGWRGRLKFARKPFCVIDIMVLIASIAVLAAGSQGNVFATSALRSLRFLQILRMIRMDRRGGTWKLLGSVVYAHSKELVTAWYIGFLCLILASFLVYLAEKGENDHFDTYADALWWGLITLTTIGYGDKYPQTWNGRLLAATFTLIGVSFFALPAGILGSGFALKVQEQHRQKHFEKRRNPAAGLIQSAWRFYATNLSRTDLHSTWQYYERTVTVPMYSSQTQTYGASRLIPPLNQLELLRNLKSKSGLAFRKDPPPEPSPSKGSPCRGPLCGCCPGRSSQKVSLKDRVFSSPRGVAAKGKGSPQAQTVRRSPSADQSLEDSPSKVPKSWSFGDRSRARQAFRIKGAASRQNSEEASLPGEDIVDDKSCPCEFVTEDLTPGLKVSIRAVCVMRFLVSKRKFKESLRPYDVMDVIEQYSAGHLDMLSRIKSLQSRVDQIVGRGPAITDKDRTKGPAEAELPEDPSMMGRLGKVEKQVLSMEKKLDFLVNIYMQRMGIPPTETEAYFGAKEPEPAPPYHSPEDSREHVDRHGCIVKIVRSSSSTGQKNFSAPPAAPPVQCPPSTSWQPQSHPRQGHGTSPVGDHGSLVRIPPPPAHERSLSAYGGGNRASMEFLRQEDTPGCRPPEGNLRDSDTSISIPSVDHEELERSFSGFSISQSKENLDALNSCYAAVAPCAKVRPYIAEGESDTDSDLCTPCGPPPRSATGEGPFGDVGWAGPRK
T1 sequence (O43525 whole entry): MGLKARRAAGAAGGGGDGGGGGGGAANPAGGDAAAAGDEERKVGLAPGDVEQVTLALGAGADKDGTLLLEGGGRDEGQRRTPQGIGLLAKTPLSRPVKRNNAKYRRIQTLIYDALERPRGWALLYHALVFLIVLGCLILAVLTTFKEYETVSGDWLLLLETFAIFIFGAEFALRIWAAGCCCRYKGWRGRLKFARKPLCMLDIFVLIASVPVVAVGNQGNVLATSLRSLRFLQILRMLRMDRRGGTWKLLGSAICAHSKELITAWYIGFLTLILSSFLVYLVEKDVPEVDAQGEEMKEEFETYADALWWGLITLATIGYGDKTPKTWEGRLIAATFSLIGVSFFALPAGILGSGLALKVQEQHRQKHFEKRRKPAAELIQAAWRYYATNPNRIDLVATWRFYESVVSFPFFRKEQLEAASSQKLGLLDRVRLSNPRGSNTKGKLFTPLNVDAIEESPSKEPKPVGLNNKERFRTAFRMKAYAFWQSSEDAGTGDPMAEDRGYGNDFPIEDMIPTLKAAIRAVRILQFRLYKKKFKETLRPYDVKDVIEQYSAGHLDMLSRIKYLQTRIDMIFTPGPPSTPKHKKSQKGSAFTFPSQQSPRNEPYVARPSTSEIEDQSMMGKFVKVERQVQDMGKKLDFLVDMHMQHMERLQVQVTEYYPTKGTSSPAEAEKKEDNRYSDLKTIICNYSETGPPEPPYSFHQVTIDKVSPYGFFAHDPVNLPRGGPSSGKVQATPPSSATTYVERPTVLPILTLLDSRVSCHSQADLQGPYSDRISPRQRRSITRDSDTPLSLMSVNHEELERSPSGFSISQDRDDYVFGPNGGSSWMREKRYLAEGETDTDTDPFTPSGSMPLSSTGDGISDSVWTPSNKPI

SMILES	EC50 [µM]
CC1CCN(c2ncc(C(=O)NCc3ccc(F)cc3F)c(C3(c4ccc(Cl)cc4)CCCC3)n2)CC1 [Example 188, 5-pyrimidinecarboxamide, 4-[1-(4-chlorophenyl)cyclopentyl]-N-[(2,4-difluorophenyl)methyl]-2-(4-methyl-1-piperidinyl)-]	0.016
O=C(NCc1ccc(F)cc1F)c1cnc(NC2CCCC2)nc1C1(c2ccc(Cl)cc2)CCCC1 [Example 189, 5-pyrimidinecarboxamide, 4-[1-(4-chlorophenyl)cyclopentyl]-2-(cyclopentylamino)-N-[(2,4-difluorophenyl)methyl]-]	0.34
O=C(NCc1cc(F)cc(C(F)(F)F)c1)c1cnc(N2CCCC2)nc1C1(c2ccc(Cl)cc2)CCCC1 [Example 191, 5-pyrimidinecarboxamide, 4-[1-(4-chlorophenyl)cyclopentyl]-N-[[3-fluoro-5-(trifluoromethyl)phenyl]methyl]-2-(1-pyrrolidinyl)-]	0.032
CC1CCCN(c2ncc(C(=O)NCc3cc(F)cc(C(F)(F)F)c3)c(C3(c4ccc(Cl)cc4)CCCC3)n2)C1 (stereo not shown) [Example 192, 5-pyrimidinecarboxamide, 4-[1-(4-chlorophenyl)cyclopentyl]-N-[[3-fluoro-5-(trifluoromethyl)phenyl]methyl]-2-(3-methyl-1-piperidinyl)-]	0.01
CC1CCN(c2ncc(C(=O)NCc3cc(F)cc(C(F)(F)F)c3)c(C3(c4ccc(Cl)cc4)CCCC3)n2)CC1 [Example 193, 5-pyrimidinecarboxamide, 4-[1-(4-chlorophenyl)cyclopentyl]-N-[[3-fluoro-5-(trifluoromethyl)phenyl]methyl]-2-(4-methyl-1-piperidinyl)-]	0.012
CN(C)CCNc1ncc(C(=O)NCc2cc(F)cc(C(F)(F)F)c2)c(C2(c3ccc(Cl)cc3)CCCC2)n1 [Example 195, 5-pyrimidinecarboxamide, 4-[1-(4-chlorophenyl)cyclopentyl]-2-[[2-(dimethylamino)ethyl]amino]-N-[[3-fluoro-5-(trifluoromethyl)phenyl]methyl]-]	0.634
O=C(NCc1cc(F)cc(C(F)(F)F)c1)c1cnc(NC2CCCC2)nc1C1(c2ccc(Cl)cc2)CCCC1 [Example 196, 5-pyrimidinecarboxamide, 4-[1-(4-chlorophenyl)cyclopentyl]-2-(cyclopentylamino)-N-[[3-fluoro-5-(trifluoromethyl)phenyl]methyl]-]	0.091
CC1CCCN(c2ncc(C(=O)NC(C)c3ccc(F)cc3)c(C3(c4ccc(Cl)cc4)CCCC3)n2)C1 (stereo not shown) [Example 198, 5-pyrimidinecarboxamide, 4-[1-(4-chlorophenyl)cyclopentyl]-N-[1-(4-fluorophenyl)ethyl]-2-(3-methyl-1-piperidinyl)-]	0.124
CC1CCN(c2ncc(C(=O)NC(C)c3ccc(F)cc3)c(C3(c4ccc(Cl)cc4)CCCC3)n2)CC1 (stereo not shown) [Example 199, 5-pyrimidinecarboxamide, 4-[1-(4-chlorophenyl)cyclopentyl]-N-[1-(4-fluorophenyl)ethyl]-2-(4-methyl-1-piperidinyl)-]	0.061
CC(NC(=O)c1cnc(NC2CCCC2)nc1C1(c2ccc(Cl)cc2)CCCC1)c1ccc(F)cc1 (stereo not shown) [Example 201, 5-pyrimidinecarboxamide, 4-[1-(4-chlorophenyl)cyclopentyl]-2-(cyclopentylamino)-N-[1-(4-fluorophenyl)ethyl]-]	0.592
CC1CCCN(c2ncc(C(=O)N(C)Cc3ccccc3)c(C3(c4ccc(F)cc4)CCCC3)n2)C1 (stereo not shown) [Example 205, 5-pyrimidinecarboxamide, 4-[1-(4-fluorophenyl)cyclopentyl]-N-methyl-2-(3-methyl-1-piperidinyl)-N-(phenylmethyl)-]	0.116
CC1CCC(Nc2ncc(C(=O)N(C)C3CCCCC3)c(C3(c4ccc(F)cc4)CCCC3)n2)CC1 (stereo not shown) [Example 207, 5-pyrimidinecarboxamide, N-cyclohexyl-4-[1-(4-fluorophenyl)cyclopentyl]-N-methyl-2-[(4-methylcyclohexyl)amino]-]	0.873
CC1CCN(c2ncc(C(=O)N(C)C3CCCCC3)c(C3(c4ccc(F)cc4)CCCC3)n2)CC1 [Example 208, 5-pyrimidinecarboxamide, N-cyclohexyl-4-[1-(4-fluorophenyl)cyclopentyl]-N-methyl-2-(4-methyl-1-piperidinyl)-]	0.558

Further lines, results first:

EC50 [µM]	SMILES
0.095	CC1CCCN(c2ncc(C(=O)NCc3ccc(F)cc3F)c(C3(c4ccc(Cl)cc4)CCCC3)n2)C1 (stereo not shown) [Example 187, 5-pyrimidinecarboxamide, 4-[1-(4-chlorophenyl)cyclopentyl]-N-[(2,4-difluorophenyl)methyl]-2-(3-methyl-1-piperidinyl)-]
0.163	CC1CCC(Nc2ncc(C(=O)NCc3cc(F)cc(C(F)(F)F)c3)c(C3(c4ccc(Cl)cc4)CCCC3)n2)CC1 (stereo not shown) [Example 190, 5-pyrimidinecarboxamide, 4-[1-(4-chlorophenyl)cyclopentyl]-N-[[3-fluoro-5-(trifluoromethyl)phenyl]methyl]-2-[(4-methylcyclohexyl)amino]-]
0.13	CN1CCC(N(C)c2ncc(C(=O)NCc3cc(F)cc(C(F)(F)F)c3)c(C3(c4ccc(Cl)cc4)CCCC3)n2)CC1 [Example 194, 5-pyrimidinecarboxamide, 4-[1-(4-chlorophenyl)cyclopentyl]-N-[[3-fluoro-5-(trifluoromethyl)phenyl]methyl]-2-[methyl(1-methyl-4-piperidinyl)amino]-]
0.233	CC1CCC(Nc2ncc(C(=O)NC(C)c3ccc(F)cc3)c(C3(c4ccc(Cl)cc4)CCCC3)n2)CC1 (stereo not shown) [Example 197, 5-pyrimidinecarboxamide, 4-[1-(4-chlorophenyl)cyclopentyl]-N-[1-(4-fluorophenyl)ethyl]-2-[(4-methylcyclohexyl)amino]-]
0.911	CCC(C)Nc1ncc(C(=O)NC(C)c2ccc(F)cc2)c(C2(c3ccc(Cl)cc3)CCCC2)n1 (stereo not shown) [Example 200, 5-pyrimidinecarboxamide, 4-[1-(4-chlorophenyl)cyclopentyl]-N-[1-(4-fluorophenyl)ethyl]-2-[(1-methylpropyl)amino]-]
0.879	CN1CCN(c2ncc(C(=O)NCc3ccc(C(F)(F)F)cc3)c(C3(c4ccc(Cl)cc4)CCCC3)n2)CC1 [Example 202, 5-pyrimidinecarboxamide, 4-[1-(4-chlorophenyl)cyclopentyl]-2-(4-methyl-1-piperazinyl)-N-[[4-(trifluoromethyl)phenyl]methyl]-]
0.032	CC1CCN(c2ncc(C(=O)NCc3ccc(C(F)(F)F)cc3)c(C3(c4ccc(Cl)cc4)CCCC3)n2)CC1 [Example 203, 5-pyrimidinecarboxamide, 4-[1-(4-chlorophenyl)cyclopentyl]-2-(4-methyl-1-piperidinyl)-N-[[4-(trifluoromethyl)phenyl]methyl]-]
0.4	CN1CCC(N(C)c2ncc(C(=O)NCc3ccc(C(F)(F)F)cc3)c(C3(c4ccc(Cl)cc4)CCCC3)n2)CC1 [Example 204, 5-pyrimidinecarboxamide, 4-[1-(4-chlorophenyl)cyclopentyl]-2-[methyl(1-methyl-4-piperidinyl)amino]-N-[[4-(trifluoromethyl)phenyl]methyl]-]
0.261	CC1CCN(c2ncc(C(=O)N(C)Cc3ccccc3)c(C3(c4ccc(F)cc4)CCCC3)n2)CC1 [Example 206, 5-pyrimidinecarboxamide, 4-[1-(4-fluorophenyl)cyclopentyl]-N-methyl-2-(4-methyl-1-piperidinyl)-N-(phenylmethyl)-]
